Reference: patent US8703947B2, “Compounds for treatment of Alzheimer's disease” (Purdue Research Foundation, priority 2008, dated 2014)

molecular target: memapsin 2 (Homo sapiens (Human), UniProt P56817); assay: Inhibition of memapsin 2 catalytic activity toward fluorogenic substrate FS-2; format: biochemical; conditions: memapsin 2, pH 4, 37° C., 20 minutes pre-incubation, tight-binding model
Method: Inhibition of Memapsin 1, Memapsin 2, and Cathepsin D Catalytic Activity. A substrate peptide H3N-ELDLAVEFWHDR—CO2 (SEQ ID NO:1) (used for inhibition assay of memapsin 2, memapsin 1, and cathepsin D) was dissolved at 2 mg/mL in DMSO and diluted 1:100 in 0.1 M sodium acetate, pH 4.0 just prior to assay. Inhibitor dissolved in DMSO was diluted into 0.1 M sodium acetate, pH 4.0 (1:100 dilution). A 50 μL aliquot of the inhibitor solution in pH 4 buffer was combined with 150 μL of 0.1 M sodium acetate containing 100-200 nM of memapsin 1, memapsin 2, or cathepsin D. Following a pre-incubation at 37° C., the proteolytic assay was initated by addition of 50 μl of the substrate diluted into pH 4 buffer, and incubation continued at 37° C. Aliquots were removed at time intervals, and combined with an equal volume of MALDI-TOF matrix ([…] in acetone, 20 mg/mL) and immediately spotted in duplicate onto a stainless-steel MALDI sample plate. MALDI-TOF mass spectrometry was performed on a PE Biosystems Voyager DE instrument at the Molecular Biology Resource Center on campus. The instrument was operated at 25,000 accelerating volts in positive mode with a 150 ns delay. Ions with a mass-to-charge ratio (m/z) were detected in the range of 650-2000 atomic mass units. Data were analyzed by the Voyager Data Explorer module to obtain ion intensity data for mass species of substrates and corresponding products in a given mixture. Relative product formation was calculated as the ratio of signal intensity of the product to the sum of signal intensities of both product and the corresponding substrate. Relative product formed per unit time was obtained from non-linear regression analysis of the data representing the initial 15% formation of product using the model: 1−e^−kT where k was the relative hydrolytic rate constant and T was time in seconds. Alternatively, relative hydrolytic rates were determined using a fluorogenic cleavage assay (Ermolieff, J. et al., Biochemistry, 39: 12450-12456 (2000)). Initial rates from either method were expressed relative to uninhibited controls and the inhibition constant Ki was determined by a non-linear fit to a tight-binding model of competitive inhibition (Bieth, J., Bayer—Symposium V. Proteinase Inhibitors, pp 463-469, Spinger-Varlag, Berlin (1994)). Results are shown in
Inhibition of Memapsin 2. The potencies of compounds were determined by measurement of their inhibition of memapsin 2 catalytic activity toward a fluorescent substrate. Kinetic inhibition experiments were performed using the procedure as described in Ermolieff, et al. Biochemistry 39:12450-12456 (2000), the teachings of which are incorporated hereby in their entirety. Briefly, assays were performed at pH 4, 37° C., by pre-incubation of memapsin 2 enzyme with compound for 20 minutes. Activity measure was initiated by addition of a fluorogenic substrate FS-2 (Bachem Americas, Torrance, Calif.). Fluorescent signal increase over time was measured as a rate of hydrolysis of the peptide substrate. Inhibition of hydrolytic rate was expressed relative to uninhibited controls and fit to a model for tight-binding inhibitors (J. Bieth, in “Proteinase Inhibitors,” Bayer Symposium V, 463-469, 1974).

Sequence of memapsin 2 (P56817 46-501): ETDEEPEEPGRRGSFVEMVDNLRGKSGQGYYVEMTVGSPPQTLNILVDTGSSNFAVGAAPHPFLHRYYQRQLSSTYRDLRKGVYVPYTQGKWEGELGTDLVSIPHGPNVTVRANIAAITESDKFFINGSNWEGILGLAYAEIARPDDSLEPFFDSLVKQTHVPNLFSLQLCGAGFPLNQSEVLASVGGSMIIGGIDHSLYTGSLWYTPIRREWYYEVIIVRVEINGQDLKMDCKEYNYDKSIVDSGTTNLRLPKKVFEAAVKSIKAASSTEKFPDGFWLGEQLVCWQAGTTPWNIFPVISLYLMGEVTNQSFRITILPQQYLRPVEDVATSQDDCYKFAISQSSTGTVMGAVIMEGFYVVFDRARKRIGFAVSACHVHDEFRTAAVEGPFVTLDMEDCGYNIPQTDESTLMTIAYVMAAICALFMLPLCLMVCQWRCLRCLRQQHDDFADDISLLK

SMILES | Ki
Cc1nc(CN(C)C(=O)c2cccc(C(=O)N[C@@H](Cc3ccccc3)[C@H](O)C3NCCN(Cc4ccccc4)C3=O)c2)cs1 (single isomer, unassigned) [Example 11b] | > 10000 nM
C[C@@H](NC(=O)c1cc(C(=O)N[C@@H](Cc2ccccc2)[C@H](O)C2Cc3ccccc3CN2)cc(N(C)S(C)(=O)=O)c1)c1ccccc1 (some centres unmarked) [GRL-0196-AL] | > 10000 nM
C[C@@H](NC(=O)c1cc(C(=O)N[C@@H](Cc2ccccc2)[C@H](O)C2NCCN(Cc3ccccc3)C2=O)cc(N(C)S(C)(=O)=O)c1)c1ccccc1 (some centres unmarked) [Example 10] | < 10000 nM
CC(C)CN1CCN[C@@H]([C@@H](O)[C@H](Cc2ccccc2)NC(=O)c2cc(C(=O)N[C@H](C)c3ccccc3)cc(N(C)S(C)(=O)=O)c2)C1=O [GRL-0849AL] | < 1000 nM
Cc1csc([C@H]2CCCN2C(=O)c2cccc(C(=O)N[C@@H](Cc3ccccc3)[C@H](O)[C@@H]3NCCN(Cc4ccccc4)C3=O)c2)n1 [GRL-0299] | < 1000 nM
Cc1nc(CN(C)C(=O)c2cccc(C(=O)N[C@@H](Cc3ccccc3)[C@H](O)C3NCCN(Cc4ccccc4)C3=O)c2)cs1 (single isomer, unassigned) [Example 11a] | < 1000 nM
COc1cccc(C[C@@H]2CC[C@H]([C@@H](O)CNC(=O)c3cc(C(=O)N[C@H](C)c4ccccc4)cc(N(C)S(C)(=O)=O)c3)N2C(=O)OC(C)(C)C)c1 [Comparison compound A, reference compound] | > 1000 nM
COc1cccc(C[C@@H]2CC[C@H]([C@@H](O)CNC(=O)c3cc(C(=O)N[C@H](C)c4ccccc4)cc(N(C)S(C)(=O)=O)c3)N2)c1 [Comparison compound B, reference compound] | > 10000 nM

Other lines, results leading:

Ki | SMILES
< 1000 nM | Cc1csc([C@H]2CCCN2C(=O)c2cccc(C(=O)N[C@@H](Cc3ccccc3)[C@H](O)[C@@H]3NCCN(CC(C)C)C3=O)c2)n1 [GRL-0669AL]
< 1000 nM | COc1ccc(CN2CCN[C@@H]([C@@H](O)[C@H](Cc3ccccc3)NC(=O)c3cccc(C(=O)N4CCC[C@@H]4c4nc(C)cs4)c3)C2=O)cc1 [GRL-0819AL]
< 1000 nM | COc1cccc(CN2CCN[C@@H]([C@@H](O)[C@H](Cc3ccccc3)NC(=O)c3cccc(C(=O)N4CCC[C@@H]4c4nc(C)cs4)c3)C2=O)c1 [GRL-1069AL]
< 1000 nM | COc1cccc(CN2CCN[C@@H]([C@@H](O)[C@H](Cc3ccccc3)NC(=O)c3cc(C(=O)N[C@H](C)c4ccccc4)cc(N(C)S(C)(=O)=O)c3)C2=O)c1 [GRL-1079AL]
< 1000 nM | COc1ccc(CN2CCN[C@@H]([C@@H](O)[C@H](Cc3ccccc3)NC(=O)c3cc(C(=O)N[C@H](C)c4ccccc4)cc(N(C)S(C)(=O)=O)c3)C2=O)cc1 [GRL-0889AL]

tested on: Aβ production in Chinese hamster ovary cells that over-express human APP695 with the London and Swedish mutations; assay: Cellular Aβ IC50 determination (Aβ40 sandwich ELISA); format: cell-based; conditions: Cricetulus griseus; Aβ40 content after 24 h incubation, CHO cells over-expressing human APP695
Method: Cellular Aβ IC50 Determinations. The potency of compounds against memapsin 2 catalytic activity was determined in a cellular assay of Aβ production. […] Chinese hamster ovary cells that over-express human APP695 with the London and Swedish mutations were seeded in multi-well plates at 10% confluency. Compounds are dissolved in DMSO to concentrations near 1 mM, and diluted into culture media to a final concentration near 4 μM (final 0.4% DMSO). Compounds were diluted serially and applied to cells in multi-well plates 48 h after seeding. Incubation was continued in 5% CO2 at 37 degrees C. for 24 h. Aliquots were removed and assayed for Aβ40 content using a sandwich ELISA (BioSource International). Amount of Aβ40 over the range of concentration of compounds, relative to control incubations, were fit to a 4-parameter IC50 model.

IC50 | SMILES
< 10000 nM | Cc1nc(CN(C)C(=O)c2cccc(C(=O)N[C@@H](Cc3ccccc3)[C@H](O)C3NCCN(Cc4ccccc4)C3=O)c2)cs1 (single isomer, unassigned) [Example 11a]
